Converted amounts (≈) assume the structure as drawn.

Common to all, as to assay type: functional
Assay [1] has as its system Bacillus subtilis. In words: Minimum bactericidal concentration of compound against Bacillus subtilis.
For assay [2], the system named is Staphylococcus aureus. The experiment in a line: Minimum inhibitory concentration of compound against Staphylococcus aureus.
Assay [3] relates to Bacillus subtilis. In words: Minimum inhibitory concentration of compound against Bacillus subtilis.
For assay [4], the system named is Staphylococcus aureus. In words: Minimum bactericidal concentration of compound against Staphylococcus aureus.

For the compound `COC1=CC(=O)C2=C(COC3CC(=O)OC23)C1=O` (stereo not drawn), the MBC (in general, the lowest tested concentration that kills the bacteria rather than only halting them) against Bacillus subtilis [1] was 128 mg/L (≈ 512 µM); against Staphylococcus aureus [4], more than 128 mg/L. For the same compound, the MIC – broadly, the lowest concentration that inhibits growth of the organism – was 64 mg/L (≈ 256 µM) against Staphylococcus aureus [2] and 32 mg/L (≈ 128 µM) in the assay with Bacillus subtilis [3].

For `COc1ccc2c(c1OC)COC1CC(=O)OC21` (stereo not drawn), the MBC in the assay on Bacillus subtilis [1] and in the assay on Staphylococcus aureus [4] was more than 128 mg/L each time. For the same compound, the MIC in the assay with Staphylococcus aureus [2] and with Bacillus subtilis [3] was 128 mg/L (≈ 511 µM) each time.

The record behind these values is ChEMBL document CHEMBL1147435, “Synthesis and antibiotic activity of the tricyclic furo[3,2-c] isochromen-2-trione unit of the pyranonaphthoquinones” (2004).
